Publication PMC7463651, “Phase I/Ib Study of Tenalisib (RP6530), a Dual PI3K δ/γ Inhibitor in Patients with Relapsed/Refractory T-Cell Lymphoma” (Cancers, 2020)
Several values for one entry are separate records, joined by “and”; a condition that tells them apart may be missing. Equal values may be shown once. Entries after “also recorded” stand apart in the source; their conditions may differ.

Assays:
[1] = tested on: relapsed/refractory T-cell lymphoma (PTCL and CTCL); experiment: Efficacy assessment (ORR, DoR), all evaluable patients; assay type: in vivo, human; settings: for Median DoR (95% CI) / ORR (95% CI): All
Protocol: (§1) Efficacy assessments included radiological, bone marrow biopsy/aspiration and skin assessments. In some cases, bone marrow disease alone was used for disease assessment. In these cases, response was reported as CR or non-CR.
(§2) In PTCL patients, radiological assessment was performed at screening, Day 1 of Cycle 3 and 5 and approximately 12 weeks thereafter. Assessments of skin lesions in PTCL patients were performed, if applicable. Bone marrow biopsy/aspirate was performed in patients without measurable but assessable disease at screening and on Day 1 of Cycle 3 and 5, then also approximately 12 weeks thereafter to confirm a CR.
(§3) In CTCL patients, assessment of skin lesions was performed at screening, Day 1 of Cycle 3 and 5, approximately 12 weeks thereafter and at the end of treatment (EOT). Skin photographs were obtained for half body global and up to 5 selected representative index lesions at baseline, at Day 1 of Cycle 3, EOT, at PR/CR/progressive disease (PD) and as required as per the discretion of the Investigator. In case of nodal involvement, radiological assessment was performed at screening, Day 1 of Cycle 3 and 5 and approximately 12 weeks thereafter. Skin biopsy was performed from the most indurated area at screening, on C3D1 and to confirm a CR.
(§4) The efficacy parameters included ORR and DoR. Revised Response Criteria for Malignant Lymphoma (Cheson 2007) was used for evaluation of PTCL [21]. International Society for Cutaneous Lymphomas Response Criteria for Mycosis Fungoides and Sezary Syndrome (SS) and Cutaneous Lymphoma Task Force of the European Organization for Research and Treatment of Cancer criteria were used for evaluation of CTCL patients. For skin scoring, the modified Severity Weighted Assessment Tool was used. For local index lesion skin scoring, the Composite Assessment of Index Lesion Severity was used.

CD30, IL-31 and IL-32α = experiment: Correlative biomarker analysis in plasma; assay type: in vivo, human
Protocol: Assessment of CD30 and soluble IL-2 receptor (sIL-2R) for PTCL and cutaneous T-cell attracting chemokine (CTACK), IL-31 and IL-32α for CTCL were performed in plasma at screening, pre-dose and after 1 h on Day 1 of Cycle 3, at EOT and/or to confirm a response.

relapsed/refractory CTCL = experiment: Efficacy assessment (ORR, DoR), CTCL patients; assay type: in vivo, human; settings: for Median DoR (95% CI) / ORR (95% CI): CTCL
Protocol: as §1, §3, §4

relapsed/refractory PTCL = experiment: Efficacy assessment (ORR, DoR), PTCL patients; assay type: in vivo, human; settings: for Median DoR (95% CI) / ORR (95% CI): PTCL
Protocol: as §1, §2, §4

PI3K δ/γ = settings: cited from earlier work
[2] = tested on: malignant patient derived primary CTCL cells; parameters: method as in ref 18 = [18]; 18. Mao G. Viswanadha S. Rhizen, Switzerland Unpublished work 2013; settings: cited from earlier work
[3] = parameters: method as in ref 27 = [27]; 27. Barde P. Rhizen, Switzerland Unpublished work 2016; settings: healthy volunteers, high fat meal; cited from earlier work
[4] = Dose Escalation 800 mg Fasting, N = 3
[5] = Dose Escalation 800 mg Fed, N = 5
[6] = Dose Expansion 800 mg Fasting, N = 22
[7] = CTCL group, Cycle 3 Day 1 compared to baseline, correlated with responses
[8] = Dose Escalation 800 mg Fasting, N = 2
[9] = Dose Escalation 800 mg Fed, N = 4
[10] = Dose Expansion 800 mg Fasting, N = 12
[11] = Dose Escalation 800 mg Fasting, N = 1
[12] = Dose Expansion 800 mg Fasting, N = 10

Compound: CC[C@H](Nc1ncnc2[nH]cnc12)c1oc2ccccc2c(=O)c1-c1cccc(F)c1 [Tenalisib]
- Complete response (CR), number of patients ([1]; 35 evaluable patients): 3 patients
- Partial response (PR) ([1]; 35 evaluable patients): 13 n (%) and 13 (37%) n (%)
- Progressive disease (PD) ([1]; 35 evaluable patients): 8 (22.9%) n (%)
- Complete response (CR) ([1]; 35 evaluable patients, three patients): 9%
- Median DoR (95% CI) ([1]; Cumulative Total, N = 35): 4.9 months and 4.9 (4.3, 12.0) months
- ORR (95% CI) ([1]; Cumulative Total, N = 35): 45.7% and 45.7 (28.8, 63.4) %
- Median DoR (95% CI) ([1]; Dose Escalation 200 mg, N = 3): 4.9 (-,-) months
- ORR (95% CI) ([1]; Dose Escalation 200 mg, N = 3): 33.3 (0.8, 90.6) %
- Median DoR (95% CI) ([1]; Dose Escalation 400 mg, N = 2): 2.4 (0.97, 3.8) months
- ORR (95% CI) ([1]; Dose Escalation 400 mg, N = 2): 100.0 (15.8, 100.0) %
- Median DoR (95% CI) [1, 4]: 10.9 (2.3, 19.5) months
- ORR (95% CI) [1, 4]: 66.7 (9.4, 99.2) %
- Median DoR (95% CI) [1, 5]: 3.3 (1.7, 4.9) months
- ORR (95% CI) [1, 5]: 40.0 (5.3, 85.3) %
- Median DoR (95% CI) ([1]; Dose Escalation Total, N = 13): 3.8 (0.7, 10.2) months
- ORR (95% CI) ([1]; Dose Escalation Total, N = 13): 53.8 (25.1, 80.8) %
- Median DoR (95% CI) [1, 6]: 7.5 (4.7, 15.9) months
- ORR (95% CI) [1, 6]: 40.9 (20.7, 63.6) %
- Patients who responded ([1]; out of 35 evaluable patients): 16 patients
- Time of response ([1]; responders): Most of the patients responded at Cycle 3 Day 1
- Plasma IL-31 levels (CD30, IL-31 and IL-32α; [7]): marked downregulation; also recorded: reductions
- Plasma IL-32α levels (CD30, IL-31 and IL-32α; [7]): marked downregulation; also recorded: reductions
- Plasma CD30 levels (CD30, IL-31 and IL-32α; PTCL patients, baseline to Cycle 3 Day 1, correlated with response): marked downregulation; also recorded: decrease in CD30 levels
- Partial response (PR), number of patients (relapsed/refractory CTCL; CTCL patients): 9 patients
- Median DoR (95% CI) (relapsed/refractory CTCL; Cumulative Total, N = 20): 3.8 months and 3.8 (2.3, 12.8) months
- ORR (95% CI) (relapsed/refractory CTCL; Cumulative Total, N = 20): 45% and 45.0 (23.1, 68.5) %
- ORR (95% CI) (relapsed/refractory CTCL; Dose Escalation 200 mg, N = 1): 0.0 (0.0, 97.5) %
- Median DoR (95% CI) (relapsed/refractory CTCL; Dose Escalation 400 mg, N = 1): 3.8 (-,-) months
- ORR (95% CI) (relapsed/refractory CTCL; Dose Escalation 400 mg, N = 1): 100.0 (2.5, 100.0) %
- Median DoR (95% CI) (relapsed/refractory CTCL; [8]): 2.3 (-,-) months
- ORR (95% CI) (relapsed/refractory CTCL; [8]): 50.0 (1.3, 98.7) %
- Median DoR (95% CI) (relapsed/refractory CTCL; [9]): 3.3 (1.7, 4.9) months
- ORR (95% CI) (relapsed/refractory CTCL; [9]): 50.0 (6.8, 93.2) %
- Median DoR (95% CI) (relapsed/refractory CTCL; Dose Escalation Total, N = 8): 3.05 (1.7, 4.6) months
- ORR (95% CI) (relapsed/refractory CTCL; Dose Escalation Total, N = 8): 50.0 (15.7, 84.3) %
- Median DoR (95% CI) (relapsed/refractory CTCL; [10]): 10.3 (2.6, 19.6) months
- ORR (95% CI) (relapsed/refractory CTCL; [10]): 41.7 (15.2, 72.3) %
- Partial response (PR) (relapsed/refractory PTCL; PTCL patients): 4 (26.7%) n (%)
- Complete response (CR) (relapsed/refractory PTCL; PTCL patients, three patients): 20%
- Median DoR (95% CI) (relapsed/refractory PTCL; Cumulative Total, N = 15): 6.5 months and 6.5 (2.9, 14.9) months
- ORR (95% CI) (relapsed/refractory PTCL; Cumulative Total, N = 15): 46.7% and 46.7 (21.3, 73.4) %
- Median DoR (95% CI) (relapsed/refractory PTCL; Dose Escalation 200 mg, N = 2): 4.9 (-,-) months
- ORR (95% CI) (relapsed/refractory PTCL; Dose Escalation 200 mg, N = 2): 50.0 (1.3, 98.7) %
- Median DoR (95% CI) (relapsed/refractory PTCL; Dose Escalation 400 mg, N = 1): 0.97 (-,-) months
- ORR (95% CI) (relapsed/refractory PTCL; Dose Escalation 400 mg, N = 1): 100.0 (2.5, 100.0) %
- Median DoR (95% CI) (relapsed/refractory PTCL; [11]): 19.5 (-,-) months
- ORR (95% CI) (relapsed/refractory PTCL; [11]): 100.0 (2.5, 100.0) %
- ORR (95% CI) (relapsed/refractory PTCL; Dose Escalation 800 mg Fed, N = 1): 0.0 (0.0, 97.5) %
- Median DoR (95% CI) (relapsed/refractory PTCL; Dose Escalation Total, N = 5): 4.9 (0.0, 19.5) months
- ORR (95% CI) (relapsed/refractory PTCL; Dose Escalation Total, N = 5): 60.0 (14.7, 94.7) %
- Median DoR (95% CI) (relapsed/refractory PTCL; [12]): 7.0 (1.2, 17.3) months
- ORR (95% CI) (relapsed/refractory PTCL; [12]): 40.0 (12.2, 73.8) %
- Median DoR (relapsed/refractory PTCL; three PTCL patients who achieved CR): 13.3 months
- Inhibitory potency (PI3K δ/γ; PI3K δ/γ): nanomolar
- Selectivity over α and β PI3K isoforms (PI3K δ/γ): several fold
- Ex-vivo activity [2]: shown ex-vivo activity
- Effect of food on Cmax [3]: no significant effect on Cmax
- Effect of food on overall exposure [3]: increased the overall exposure
